Experimental data from ChEMBL document CHEMBL1146091, “Benzoylphenylurea sulfur analogues with potent antitumor activity” (J Med Chem, 2006).

Legend:
[1] = target: Tubulin (Homo sapiens) (UniProt P68371+Q9H4B7+P0DPH7+P68366+Q13509+Q71U36+P04350+Q3ZCM7+P07437+P68363+Q9BQE3+Q6PEY2+Q13885+Q9BVA1+Q9BUF5); assay: Inhibition of [3H]colchicine binding to tubulin at 5 uM; format: protein-complex assay
[2] = tested on: Panc1005; assay: Cytotoxicity against human Panc1005 cell line by MTT assay; format: functional, cell-based
[3] = tested on: MIA PaCa-2; assay: Cytotoxicity against human Miapaca2 cell line by MTT assay; format: functional, cell-based
[4] = target: Tubulin; assay: Inhibition of tubulin polymerization; format: protein-complex assay, Homo sapiens
[5] = tested on: CWR22R; assay: Cytotoxicity against human CWR22R cell line by MTT assay; format: functional, cell-based; conditions: 22Rv1
[6] = tested on: MCF7; assay: Induction of apoptosis in human MCF7 cell line at 30 nM after 48 hrs; format: functional
[7] = tested on: Panc430; assay: Cytotoxicity against human Panc430 cell line by MTT assay; format: functional, cell-based
[8] = tested on: Hs 766; assay: Cytotoxicity against human HS766 cell line by MTT assay; format: functional, cell-based
[9] = tested on: MCF7; assay: Induction of apoptosis in human MCF7 cell line at 100 nM after 48 hrs; format: functional
[10] = tested on: PANC-1; assay: Cytotoxicity against human Panc1 cell line by MTT assay; format: functional, cell-based
[11] = tested on: ASPC1; assay: Cytotoxicity against human ASPC1 cell line by MTT assay; format: functional, cell-based
[12] = tested on: Panc203; assay: Cytotoxicity against human Panc203 cell line by MTT assay; format: functional, cell-based
[13] = tested on: LNCaP; assay: Cytotoxicity against human LnCaP cell line by MTT assay; format: functional, cell-based
[14] = tested on: LAPC4; assay: Cytotoxicity against human LAPC4 cell line by MTT assay; format: functional, cell-based
[15] = tested on: MCF7; assay: Induction of apoptosis in human MCF7 cell line at 10 nM after 48 hrs; format: functional

COc1cc([C@@H]2c3cc4c(cc3[C@H](O)[C@H]3COC(=O)[C@H]23)OCO4)cc(OC)c1OC was tested, and the inhibition [1] was 77%.

In the case of O=C(NC(=O)c1ccccc1[N+](=O)[O-])Nc1ccc(Sc2ncc(Br)cn2)cc1, the IC50 [2] is reported as 10000 nM, the IC50 [3] is reported as 86 nM and the IC50 [4] is reported as 2100 nM. For the same molecule, the IC50 [5] was 50 nM, the inhibition [1] was 17% and the Activity [6] was 51.2%. The IC50 [7] was 90 nM, the IC50 [8] was 88 nM and the Activity [9] was 53.6%. For the same molecule, the IC50 [10] was 85 nM, the IC50 [11] was 1000 nM and the IC50 [12] was 700 nM. The IC50 [13] was 50 nM, the IC50 [14] was 50 nM and the Activity [15] was 29.7%.

Nc1ccccc1C(=O)NC(=O)Nc1ccc(Oc2ncc(Br)cn2)cc1 was tested, and the IC50 [2] was over 10000 nM, the IC50 [3] was 920 nM and the IC50 [4] was 36000 nM. It also gave an IC50 [5] of 2000 nM, an IC50 [7] of over 10000 nM and an IC50 [8] of 270 nM. It also gave an IC50 [10] of 3500 nM, an IC50 [11] of 5200 nM and an IC50 [12] of over 10000 nM. It also gave an IC50 [13] of 750 nM and an IC50 [14] of 750 nM.

O=C(NC(=O)c1ccccc1[N+](=O)[O-])Nc1ccc(Sc2ncccn2)cc1 was tested, and the IC50 [5] was 5000 nM, the IC50 [13] was 500 nM and the IC50 [14] was 600 nM.

Nc1ccccc1C(=O)NC(=O)Nc1ccc(Sc2ncccn2)cc1 showed an IC50 [2] of over 10000 nM, an IC50 [3] of 7000 nM and an IC50 [7] of 6500 nM. For the same molecule, the IC50 [8] was 8000 nM, the IC50 [10] was 7500 nM and the IC50 [11] was 6000 nM. The IC50 [12] was 5500 nM.

O=C(NC(=O)c1ccccc1[N+](=O)[O-])Nc1ccc(S(=O)(=O)c2ncc(Br)cn2)cc1 showed an IC50 [2] of over 10000 nM, an IC50 [3] of 6100 nM and an IC50 [5] of over 10000 nM. It also gave an IC50 [7] of over 10000 nM, an IC50 [8] of over 10000 nM and an IC50 [10] of over 10000 nM. For the same molecule, the IC50 [11] was over 10000 nM, the IC50 [12] was over 10000 nM and the IC50 [13] was 500 nM. The IC50 [14] was 4000 nM.

O=C(NC(=O)c1ccccc1[N+](=O)[O-])Nc1ccc([S+]([O-])c2ncc(Br)cn2)cc1 (configuration not stated) gave an IC50 [2] of 5500 nM, an IC50 [3] of 8000 nM and an IC50 [7] of 5500 nM. For the same molecule, the IC50 [8] was 6500 nM, the IC50 [10] was 6500 nM and the IC50 [11] was 2500 nM. It also gave an IC50 [12] of 5500 nM.

O=C(NC(=S)Nc1ccc(Sc2ncc(Br)cn2)cc1)c1ccccc1 showed an IC50 [2] of over 10000 nM, an IC50 [3] of 10000 nM and an IC50 [5] of over 10000 nM. The IC50 [7] was 7500 nM, the IC50 [8] was 8500 nM and the IC50 [10] was 9500 nM. For the same molecule, the IC50 [11] was 10000 nM, the IC50 [12] was over 10000 nM and the IC50 [13] was over 10000 nM. The IC50 [14] was 6000 nM.

Cc1cc(NC(=O)NC(=O)c2ccccc2N(C)C)ccc1Oc1ncc(Br)cn1 showed an IC50 [2] of 5000 nM, an IC50 [3] of 850 nM and an IC50 [5] of 1000 nM. The Activity [6] was 19.5%, the IC50 [7] was 800 nM and the IC50 [8] was 1000 nM. The Activity [9] was 27.7%, the IC50 [10] was 700 nM and the IC50 [11] was 850 nM. It also gave an IC50 [12] of 950 nM, an IC50 [13] of 500 nM and an IC50 [14] of 250 nM. For the same molecule, the Activity [15] was 16.1%.

For O=C(NC(=O)c1ccccc1)Nc1ccc(Sc2ncc(Br)cn2)cc1, the IC50 [2] was over 10000 nM, the IC50 [3] was 5000 nM and the IC50 [7] was 2000 nM. The IC50 [8] was 5500 nM, the IC50 [10] was over 10000 nM and the IC50 [11] was over 10000 nM. It also gave an IC50 [12] of 7500 nM.

O=C(NC(=O)c1ccccc1[N+](=O)[O-])Nc1ccc(Oc2ncc(Br)cn2)cc1 gave an IC50 [2] of over 10000 nM, an IC50 [3] of 740 nM and an IC50 [4] of 4700 nM. For the same molecule, the IC50 [5] was 5000 nM, the inhibition [1] was 21% and the IC50 [7] was 10000 nM. It also gave an IC50 [8] of 470 nM, an IC50 [10] of 680 nM and an IC50 [11] of 770 nM. For the same molecule, the IC50 [12] was over 10000 nM, the IC50 [13] was 1000 nM and the IC50 [14] was 200 nM.

For Nc1ccccc1C(=O)NC(=O)Nc1ccc(Sc2ncc(Br)cn2)cc1, the IC50 [2] was 10000 nM, the IC50 [3] was 95 nM and the IC50 [4] was over 40000 nM. It also gave an IC50 [5] of 500 nM, an IC50 [7] of 200 nM and an IC50 [8] of 700 nM. The IC50 [10] was 90 nM, the IC50 [11] was 450 nM and the IC50 [12] was 85 nM. For the same molecule, the IC50 [13] was 500 nM and the IC50 [14] was 100 nM.
